{"source": "DBAASP", "experiment_in_all_cases": "≥ marks a high value that may be exact or a test limit, other limits are often not marked, values filed in µg/mL are converted to µM", "key": {"[1]": {"tested_on": "Escherichia coli ATCC 25922"}, "[2]": {"tested_on": "Escherichia coli K88"}, "[3]": {"tested_on": "Escherichia coli O157:H7 CICC 21530"}, "[4]": {"tested_on": "Lacticaseibacillus rhamnosus 1.0911"}, "[5]": {"tested_on": "Lacticaseibacillus rhamnosus 1.0936"}, "[6]": {"tested_on": "Lacticaseibacillus rhamnosus 1.9021"}, "[7]": {"tested_on": "Lacticaseibacillus rhamnosus 8014"}, "[8]": {"tested_on": "Pseudomonas aeruginosa ATCC 27853"}, "[9]": {"tested_on": "Pseudomonas aeruginosa PAO1"}, "[10]": {"tested_on": "Salmonella enterica subsp. enterica serovar Choleraesuis CVCC 503"}, "[11]": {"tested_on": "Salmonella enterica subsp. enterica serovar Pullorum C79-13"}, "[12]": {"tested_on": "Salmonella enterica subsp. enterica serovar Typhimurium ATCC 14028"}, "[13]": {"tested_on": "Staphylococcus aureus ATCC 29213"}, "[14]": {"tested_on": "Staphylococcus aureus ATCC 43300"}, "[15]": {"tested_on": "Staphylococcus epidermidis ATCC 12228"}, "[16]": {"tested_on": "Streptococcus agalactiae BNCC 185941"}, "[17]": {"tested_on": "Escherichia coli ST131"}, "[18]": {"tested_on": "Klebsiella pneumoniae ST258"}, "[19]": {"tested_on": "Bifidobacterium adolescentis"}, "[20]": {"tested_on": "Citrobacter koseri"}, "[21]": {"tested_on": "Enterococcus faecium"}, "[22]": {"tested_on": "Escherichia coli BL21"}, "[23]": {"tested_on": "Escherichia coli JM109"}, "[24]": {"tested_on": "Klebsiella pneumoniae CCRC 10694"}, "[25]": {"tested_on": "Lactobacillus delbrueckii subsp. bulgaricus"}, "[26]": {"tested_on": "Pseudomonas aeruginosa"}, "[27]": {"tested_on": "Salmonella enterica"}, "[28]": {"tested_on": "Salmonella typhimurium CCRC 12947"}, "[29]": {"tested_on": "Staphylococcus aureus CCRC 12652"}, "[30]": {"tested_on": "Staphylococcus aureus CCRC 15211"}, "[31]": {"tested_on": "Staphylococcus xylosus"}, "[32]": {"tested_on": "Vibrio parahaemolyticus CCRC 10806"}, "[33]": {"tested_on": "Legionella pneumophila Lens"}, "[34]": {"tested_on": "Staphylococcus pseudintermedius"}, "[35]": {"tested_on": "Escherichia coli DH5alpha"}, "[36]": {"tested_on": "Escherichia coli K12 MG1655"}, "[37]": {"tested_on": "Micrococcus luteus A270"}, "[38]": {"tested_on": "Pseudomonas aeruginosa PA14"}}, "note": "Where “and” joins values, the source holds several entries; their conditions need not be identical. Equal values may be shown once.", "data": [{"smiles": "CC(C)C[C@H](NC(=O)CNC(=O)[C@H](CC(C)C)NC(=O)[C@H](CS)NC(=O)[C@H](CC(C)C)NC(=O)CNC(=O)[C@H](CC(C)C)NC(=O)[C@H](CCCCN)NC(=O)[C@@H](N)CCCCN)C(=O)N[C@@H](CCCCN)C(=O)N[C@@H](CCCCN)C(N)=O", "note": "[KKLGLCLGLKK]", "values": [{"measurement": "MIC", "setting": "[1]", "value": "32 µM and 64 µM"}, {"measurement": "MIC", "setting": "[2]", "value": 16, "unit": "µM"}, {"measurement": "MIC", "setting": "[3]", "value": 16, "unit": "µM"}, {"measurement": "MIC", "setting": "[4]", "value": 16, "unit": "µM"}, {"measurement": "MIC", "setting": "[5]", "value": "≥ 128", "unit": "µM"}, {"measurement": "MIC", "setting": "[6]", "value": "≥ 32", "unit": "µM"}, {"measurement": "MIC", "setting": "[7]", "value": "≥ 64", "unit": "µM"}, {"measurement": "MIC", "setting": "[8]", "value": 64, "unit": "µM"}, {"measurement": "MIC", "setting": "[9]", "value": 32, "unit": "µM"}, {"measurement": "MIC", "setting": "[10]", "value": "≥ 64", "unit": "µM"}, {"measurement": "MIC", "setting": "[11]", "value": 8, "unit": "µM"}, {"measurement": "MIC", "setting": "[12]", "value": 64, "unit": "µM"}, {"measurement": "MIC", "setting": "[13]", "value": 128, "unit": "µM"}, {"measurement": "MIC", "setting": "[14]", "value": 64, "unit": "µM"}, {"measurement": "MIC", "setting": "[15]", "value": 128, "unit": "µM"}, {"measurement": "MIC", "setting": "[16]", "value": "≥ 128", "unit": "µM"}]}, {"smiles": "CC(C)C[C@H](NC(=O)[C@H](Cc1c[nH]c2ccccc12)NC(=O)[C@H](CCCCN)NC(=O)[C@H](CC(C)C)NC(=O)[C@H](Cc1c[nH]c2ccccc12)NC(=O)[C@H](CCCCN)NC(=O)[C@H](CCCN=C(N)N)NC(=O)[C@H](Cc1c[nH]c2ccccc12)NC(=O)[C@H](CCCCN)NC(=O)[C@@H](N)CCCCN)C(=O)N[C@@H](C)C(=O)N[C@@H](CCCCN)C(=O)N[C@@H](CCCCN)C(N)=O", "note": "[KKWRKWLKWLAKK]", "values": [{"measurement": "MIC", "setting": "[1]", "value": 2, "unit": "µM"}, {"measurement": "MIC", "setting": "[17]", "value": 2, "unit": "µM"}, {"measurement": "MIC", "setting": "[18]", "value": 4, "unit": "µM"}]}, {"smiles": "CC[C@H](C)[C@H](NC(=O)[C@H](CO)NC(=O)[C@H](CCCCN)NC(=O)[C@H](Cc1c[nH]c2ccccc12)NC(=O)[C@H](CCCCN)NC(=O)[C@@H](N)CC(C)C)C(=O)N[C@H](C(=O)N[C@@H](CO)C(=O)N[C@@H](Cc1c[nH]c2ccccc12)C(=O)N[C@@H](C)C(=O)N[C@@H](CCCCN)C(=O)N[C@@H](CCCCN)C(=O)N[C@H](C(=O)N[C@@H](CC(C)C)C(N)=O)C(C)C)C(C)C", "note": "[LKWKSIVSWAKKVL]", "values": [{"measurement": "MIC", "setting": "[19]", "value": "≥ 75.9", "unit": "µM"}, {"measurement": "MIC", "setting": "[20]", "value": 0.839, "unit": "µM"}, {"measurement": "MIC", "setting": "[21]", "value": "≥ 75.9", "unit": "µM"}, {"measurement": "MIC", "setting": "[22]", "value": 1.68, "unit": "µM"}, {"measurement": "MIC", "setting": "[23]", "value": 0.593, "unit": "µM"}, {"measurement": "MIC", "setting": "[24]", "value": 4.74, "unit": "µM"}, {"measurement": "MIC", "setting": "[25]", "value": "≥ 75.9", "unit": "µM"}, {"measurement": "MIC", "setting": "[26]", "value": 26.8, "unit": "µM"}, {"measurement": "MIC", "setting": "[27]", "value": 3.35, "unit": "µM"}, {"measurement": "MIC", "setting": "[28]", "value": 2.37, "unit": "µM"}, {"measurement": "MIC", "setting": "[29]", "value": 3.35, "unit": "µM"}, {"measurement": "MIC", "setting": "[30]", "value": 3.35, "unit": "µM"}, {"measurement": "MIC", "setting": "[31]", "value": 0.296, "unit": "µM"}, {"measurement": "MIC", "setting": "[32]", "value": 2.37, "unit": "µM"}]}, {"smiles": "CC[C@H](C)[C@H](NC(=O)[C@H](CC(C)C)NC(=O)CNC(=O)[C@H](CCCCN)NC(=O)[C@@H](NC(=O)[C@@H](NC(=O)[C@H](CCC(=O)O)NC(=O)[C@H](Cc1ccccc1)NC(=O)[C@H](Cc1ccccc1)NC(=O)[C@H](CCCCN)NC(=O)[C@H](C)NC(=O)[C@@H](NC(=O)[C@@H](NC(=O)[C@H](CC(=O)O)NC(=O)[C@H](C)NC(=O)[C@@H](N)CCSC)C(C)C)[C@@H](C)CC)[C@@H](C)CC)C(C)C)C(=O)N[C@@H](CC(=O)O)C(=O)N[C@@H](CCC(N)=O)C(=O)N[C@@H](Cc1ccccc1)C(=O)N[C@H](C(=O)N[C@@H](CCC(N)=O)C(=O)N[C@@H](CCCCN)C(=O)O)[C@@H](C)O", "note": "[MADVIAKFFEIVKGLIDQFTQK]", "values": [{"measurement": "MIC", "setting": "[33]", "value": 2.44, "unit": "µM"}]}, {"smiles": "CC(=O)N[C@@H](CCCN=C(N)N)C(=O)N[C@@H](CCCN=C(N)N)C(=O)N[C@@H](CCCN=C(N)N)C(=O)N[C@@H](Cc1c[nH]c2ccccc12)C(=O)N[C@@H](CCCN=C(N)N)C(=O)N[C@@H](CCCCN)C(=O)N[C@@H](CCCN=C(N)N)C(=O)N[C@@H](CCCN=C(N)N)C(=O)N[C@@H](Cc1c[nH]c2ccccc12)C(=O)N[C@@H](Cc1c[nH]c2ccccc12)C(=O)N[C@@H](Cc1c[nH]c2ccccc12)C(N)=O", "note": "[RRRWRKRRWWW]", "values": [{"measurement": "MIC", "setting": "[8]", "value": 17.5, "unit": "µM"}, {"measurement": "MIC", "setting": "[26]", "value": 24.8, "unit": "µM"}, {"measurement": "MIC", "setting": "[13]", "value": 17.5, "unit": "µM"}, {"measurement": "MIC", "setting": "[34]", "value": 24.8, "unit": "µM"}]}, {"smiles": "CC(C)C[C@H](NC(=O)CNC(=O)[C@@H](NC(=O)[C@H](CC(C)C)NC(=O)[C@H](C)NC(=O)[C@@H](N)C(C)C)[C@@H](C)O)C(=O)N[C@H](C(=O)N[C@H](C(=O)N[C@@H](C)C(=O)N[C@@H](CCC(=O)O)C(=O)N[C@@H](Cc1ccc(O)cc1)C(=O)N[C@@H](Cc1ccccc1)C(=O)N[C@@H](CCCN=C(N)N)C(=O)O)C(C)C)[C@@H](C)O", "note": "[VALTGLTVAEYFR]", "values": [{"measurement": "MIC", "setting": "[35]", "value": 3.9, "unit": "µM"}, {"measurement": "MIC", "setting": "[36]", "value": 7.8, "unit": "µM"}, {"measurement": "MIC", "setting": "[37]", "value": 1.9, "unit": "µM"}, {"measurement": "MIC", "setting": "[8]", "value": 7.8, "unit": "µM"}, {"measurement": "MIC", "setting": "[38]", "value": 15.6, "unit": "µM"}, {"measurement": "MIC", "setting": "[13]", "value": 3.9, "unit": "µM"}]}]}
